Experimental data reported in patent publication US11980620B2, “Compounds and methods for treatment of Diamond Blackfan anemia” (THE CHILDREN'S MEDICAL CENTER CORPORATION, priority 2017, dated 2024).

Experiments:
control iPSCs = assay: Erythroid differentiation (CD71+GlyA+) of CD34-5F cells from control iPSCs; type: cell-based, human
Experimental: (FIG. 8A) The distribution of 1440 compounds by Z-score in a proliferation-based screen of the Sigma LOPAC chemical library. DBA CD34-5F cells were plated in erythroid-promoting conditions in 384-well format. Erythroid proliferation was measured in the presence of 5 μM of each compound, and converted into Z-scores. The screen was carried out with 3 RPS19 DBA and 2 normal iPSC lines. (FIG. 88) Dose-dependent effect of SMER28 (in μM) on erythroid differentiation, shown as the absolute number of erythroid cells in each drug-treated condition normalized to vehicle (DMSO) control. Erythroid cells were analyzed on day 9 of differentiation using markers CD71 and GlyA. […] (FIG. 8C) Absolute number of erythroid cells (analyzed on day 9) in each drug-treated condition normalized to vehicle (DMSO) control (4 independent experiments). […]
(FIG. 12A) Erythroid differentiation of control and DBA CD34-5F cells treated with DMSO vehicle or SMER28 (10 μM) during the initial CD34^+ progenitor phase (day 0-4 of differentiation), or stage I of erythroid culture (day 4-9 of differentiation). Percent of erythroid cells after stage I of differentiation is indicated in top left for each condition, and quantitated in (FIG. 12B). […] GFP^+ RPS19^sh and GFP^− control cells were quantitated separately. […] Arrows indicate enucleated RBCs, which are quantitated by flow cytometry. […]

DBA iPSCs = assay: Cytotoxicity (Annexin and DAPI positive cells) at varying doses; type: cell-based, human; settings: drug doses up to 20 μM
Excerpt: FIGS. 9A-9D show compounds screened for rescue of erythroid differentiation defects. […] (FIG. 9B) List of compounds screened that provided promising results. (FIG. 9C) FACS plots showing GlyA and CD71 expression levels for indicated genotype (top panels). Micrographs showing GlyA^+ CD71^+ cells in indicated genotype (bottom panels). (FIG. 9D) Plot showing the percentage of Annexin and DAPI positive cells following varying doses of SMER28.

LC3 = assay: Autophagic marker LC3 levels in liver of treated mice; type: in vivo, mouse
Excerpt: FIGS. 11A-11C show effect of SMER28 on CD34+ progenitors. (FIG. 11A) Protein levels of LC3-I and LC3-II in control and SMER28 treated mice. GADPH is used as a loading control. […] (FIG. 11C) Atg5 morpholino treatment of rps29^+/− zebrafish.
In following evaluation, the effects of administration of SMER28 to mice with irradiation-induced anemia, a model that enables dose-finding and initial testing of safety and bioactivity. […] To assess bioactivity, we measured the levels of autophagic marker LC3 in treated animals. […] (FIG. 10C). We tested the effect of this compound on human cells by treating NSG mice transplanted with human CD34-5F and CB cells. SMER28 increased the output of GlyA^+ RBCs from DBA CD34-5F cells (FIG. 10D).

[1] = tested on: CD34-5F or CB progenitors; assay: Output of mature RBCs at end of stage III of erythroid culture; type: cell-based, human
Experimental: (FIG. 12A) Erythroid differentiation of control and DBA CD34-5F cells treated with DMSO vehicle or SMER28 (10 μM) during the initial CD34^+ progenitor phase (day 0-4 of differentiation), or stage I of erythroid culture (day 4-9 of differentiation). Percent of erythroid cells after stage I of differentiation is indicated in top left for each condition, and quantitated in (FIG. 12B). Data are shown as mean f s.e.m. of 4 independent experiments, with 2 control and 4 DBA iPSCs. (FIG. 12C) Same as (FIG. 12A) for CB CD34+ cells transduced with shRPS19 hairpins. GFP^+ RPS19^sh and GFP^− control cells were quantitated separately. […] (FIG. 12D) RBC pellets at the end of stage III initiated with equal numbers of CD34-5F or CB progenitors. SMER28 was added at […]. (FIG. 12E) May-Grunwald-Giemsa stain of erythroid cells from CB CD34^+ at end of stage III. Arrows indicate enucleated RBCs, which are quantitated by flow cytometry. (FIG. 12F) Quantitation of the enucleation efficiency (left) of GLYA^+ cells. Data in FIGS. 12E-12F represents 3 independent experiments. For all panels, *p<0.05, **p<0.01.
Erythroblasts proliferate rapidly to give rise to terminally differentiated RBCs. […]

C=CCNc1ncnc2ccc(Br)cc12 [SMER28, 6-Bromo-N-2-propenyl-4-quinazolinam]
effect on number of erythroid cells normalized to vehicle (control iPSCs): 2.5 fold | EC50 (control iPSCs; Homo sapiens, iPSC, read-out: EC50, number of erythroid cells): 1600 nM | Cytotoxicity (DBA iPSCs): not observed | LC3-I and LC3-II levels in the liver (LC3): modestly increased | output of RBCs from erythroblasts ([1]; treatment of CD34+ progenitors only): comparable to vehicle controls | output of iPSC- and CB-derived mature RBCs ([1]; treatment of erythroblasts during stages I-III): enhanced
